Data as given in the supplement of paper PMC10627819.

Legend:
S. aureus Newman [1] = assay: fitness (endpoint OD595 vs no drug) (fraction); higher = more growth
In short: (§1)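 Fitness was defined as the optical density at the transition into stationary phase relative to the robust mean of no-drug control wells. Values were capped at 1. Cultures were started at OD595 0.01 in 384-well plates (30 µl, or 55 µl for S. pneumoniae) in TSB, LB Lennox or CY at 37 °C. OD595 was recorded every 30 min over 14 h, with the first reading subtracted as background.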

S. pneumoniae D39V [2] = assay: as above
In short: as §1

B. subtilis 168 = assay: Bliss interaction score (quartile over a dose matrix) (fitness difference); higher = more antagonism (negative = synergy)
In short: (§2)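 Values were capped at 1 after dividing OD595 at stationary-phase entry by the plate's robust no-drug mean. This ratio is fitness, and single-drug fitness was inferred from the combination data. The Bliss score is observed minus product-expected fitness, given as quartiles over technical, biological and donor/recipient replicates.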

S. aureus DSM 20231 = assay: as above
In short: as §2

S. aureus Newman [3] = assay: as above
In short: as §2

S. pneumoniae D39V [4] = assay: as above
In short: as §2
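Wherever Bliss interaction score (quartile over a dose matrix) is given: first quartile when negative (synergy) and third quartile when positive (antagonism).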

CO/N=C(\C(=O)N[C@@H]1C(=O)N2C(C(=O)[O-])=C(C[N+]3(C)CCCC3)CS[C@H]12)c1csc(N)n1 [Cefepime] + CC1=C(C(=O)O)N2C(=O)[C@@H](NC(=O)[C@H](N)c3ccccc3)[C@H]2SC1 [Cephalexin]
fitness
Details	first compound 0.007 µg/mL	first compound 0.014 µg/mL	first compound 0.028 µg/mL	first compound 0.125 µg/mL	first compound 0.25 µg/mL	first compound 0.5 µg/mL
S. aureus Newman [1], partner 0.25 µg/mL	–	–	–	0.941	0.876	0.843
S. aureus Newman [1], partner 0.5 µg/mL	–	–	–	0.939	0.867	0.8
S. aureus Newman [1], partner 1 µg/mL	–	–	–	0.969	0.922	0.861
S. pneumoniae D39V [2], partner 1 µg/mL	0.93	0.923	0.584	–	–	–
S. pneumoniae D39V [2], partner 2 µg/mL	0.101	0.0733	0.0074	–	–	–
S. pneumoniae D39V [2], partner 4 µg/mL	0.0209	0.0355	0.015	–	–	–

fitness, S. pneumoniae D39V [2], one replicate
Details	first compound 0.0078 µg/mL	first compound 0.0155 µg/mL	first compound 0.031 µg/mL
partner 0.125 µg/mL	≥ 1	0.94	0.434
partner 0.25 µg/mL	0.988	0.96	0.529
partner 0.5 µg/mL	≥ 1	0.925	0.297

Details	Bliss interaction score
B. subtilis 168	0.0474
S. aureus DSM 20231	0.0619
S. aureus Newman [3]	-0.0529
S. pneumoniae D39V [4]	-0.105

CO/N=C(\C(=O)N[C@@H]1C(=O)N2C(C(=O)[O-])=C(C[N+]3(C)CCCC3)CS[C@H]12)c1csc(N)n1 [Cefepime] + CC(C1CCC(C(O1)OC2C(CC(C(C2O)OC3C(C(C(CO3)(C)O)NC)O)N)N)N)NC [Gentamicin]
main component drawn
Details	fitness
S. aureus Newman [1], first compound 0.125 µg/mL, partner 0.375 µg/mL	0.954
S. aureus Newman [1], first compound 0.125 µg/mL, partner 0.5 µg/mL	0.871
S. aureus Newman [1], first compound 0.125 µg/mL, partner 0.75 µg/mL	0.94
S. aureus Newman [1], first compound 0.125 µg/mL, partner 1 µg/mL	≥ 1
S. aureus Newman [1], first compound 0.125 µg/mL, partner 1.5 µg/mL	0.916
S. aureus Newman [1], first compound 0.125 µg/mL, partner 2 µg/mL	≥ 1
S. aureus Newman [1], first compound 0.25 µg/mL, partner 0.375 µg/mL	0.857
S. aureus Newman [1], first compound 0.25 µg/mL, partner 0.5 µg/mL	0.816
S. aureus Newman [1], first compound 0.25 µg/mL, partner 0.75 µg/mL	0.837
S. aureus Newman [1], first compound 0.25 µg/mL, partner 1 µg/mL	0.906
S. aureus Newman [1], first compound 0.25 µg/mL, partner 1.5 µg/mL	0.787
S. aureus Newman [1], first compound 0.25 µg/mL, partner 2 µg/mL	0.966
S. aureus Newman [1], first compound 0.5 µg/mL, partner 0.375 µg/mL	0.799
S. aureus Newman [1], first compound 0.5 µg/mL, partner 0.5 µg/mL	0.757
S. aureus Newman [1], first compound 0.5 µg/mL, partner 0.75 µg/mL	0.818
S. aureus Newman [1], first compound 0.5 µg/mL, partner 1 µg/mL	0.804
S. aureus Newman [1], first compound 0.5 µg/mL, partner 1.5 µg/mL	0.744
S. aureus Newman [1], first compound 0.5 µg/mL, partner 2 µg/mL	0.87
S. pneumoniae D39V [2], first compound 0.007 µg/mL, partner 2 µg/mL	0.994
S. pneumoniae D39V [2], first compound 0.007 µg/mL, partner 4 µg/mL	0.996
S. pneumoniae D39V [2], first compound 0.007 µg/mL, partner 8 µg/mL	0.97
S. pneumoniae D39V [2], first compound 0.0078 µg/mL, partner 2 µg/mL	1
S. pneumoniae D39V [2], first compound 0.0078 µg/mL, partner 4 µg/mL	≥ 1
S. pneumoniae D39V [2], first compound 0.0078 µg/mL, partner 8 µg/mL	0.972
S. pneumoniae D39V [2], first compound 0.014 µg/mL, partner 2 µg/mL	≥ 1
S. pneumoniae D39V [2], first compound 0.014 µg/mL, partner 4 µg/mL	0.99
S. pneumoniae D39V [2], first compound 0.014 µg/mL, partner 8 µg/mL	≥ 1
S. pneumoniae D39V [2], first compound 0.0155 µg/mL, partner 2 µg/mL	0.964
S. pneumoniae D39V [2], first compound 0.0155 µg/mL, partner 4 µg/mL	0.974
S. pneumoniae D39V [2], first compound 0.0155 µg/mL, partner 8 µg/mL	0.971
S. pneumoniae D39V [2], first compound 0.028 µg/mL, partner 2 µg/mL	0.926
S. pneumoniae D39V [2], first compound 0.028 µg/mL, partner 4 µg/mL	0.932
S. pneumoniae D39V [2], first compound 0.028 µg/mL, partner 8 µg/mL	0.885
S. pneumoniae D39V [2], first compound 0.031 µg/mL, partner 2 µg/mL	0.493
S. pneumoniae D39V [2], first compound 0.031 µg/mL, partner 8 µg/mL	0.439

main component drawn
Details	Bliss interaction score
B. subtilis 168	-0.134
S. aureus DSM 20231	0.0966
S. aureus Newman [3]	-0.0492
S. pneumoniae D39V [4]	0.0531

CO/N=C(\C(=O)N[C@@H]1C(=O)N2C(C(=O)[O-])=C(C[N+]3(C)CCCC3)CS[C@H]12)c1csc(N)n1 [Cefepime] + CN(C)c1cc(NC(=O)CNC(C)(C)C)c(O)c2c1C[C@H]1C[C@H]3[C@H](N(C)C)C(O)=C(C(N)=O)C(=O)[C@@]3(O)C(O)=C1C2=O [Tigecycline]
Details	fitness
S. aureus Newman [1], first compound 0.125 µg/mL, partner 0.039 µg/mL	0.905
S. aureus Newman [1], first compound 0.125 µg/mL, partner 0.078 µg/mL	0.92
S. aureus Newman [1], first compound 0.125 µg/mL, partner 0.156 µg/mL	0.882
S. aureus Newman [1], first compound 0.25 µg/mL, partner 0.039 µg/mL	0.837
S. aureus Newman [1], first compound 0.25 µg/mL, partner 0.078 µg/mL	0.838
S. aureus Newman [1], first compound 0.25 µg/mL, partner 0.156 µg/mL	0.862
S. aureus Newman [1], first compound 0.5 µg/mL, partner 0.039 µg/mL	0.72
S. aureus Newman [1], first compound 0.5 µg/mL, partner 0.078 µg/mL	0.763
S. aureus Newman [1], first compound 0.5 µg/mL, partner 0.156 µg/mL	0.798
S. pneumoniae D39V [2], first compound 0.007 µg/mL, partner 0.325 µg/mL	0.996
S. pneumoniae D39V [2], first compound 0.007 µg/mL, partner 0.65 µg/mL	0.964
S. pneumoniae D39V [2], first compound 0.007 µg/mL, partner 1.3 µg/mL	0.955
S. pneumoniae D39V [2], first compound 0.0078 µg/mL, partner 0.65 µg/mL	0.963
S. pneumoniae D39V [2], first compound 0.0078 µg/mL, partner 1.3 µg/mL	0.943
S. pneumoniae D39V [2], first compound 0.0078 µg/mL, partner 2.6 µg/mL	0.918
S. pneumoniae D39V [2], first compound 0.014 µg/mL, partner 0.325 µg/mL	≥ 1
S. pneumoniae D39V [2], first compound 0.014 µg/mL, partner 0.65 µg/mL	0.983
S. pneumoniae D39V [2], first compound 0.014 µg/mL, partner 1.3 µg/mL	0.99
S. pneumoniae D39V [2], first compound 0.0155 µg/mL, partner 0.65 µg/mL	0.91
S. pneumoniae D39V [2], first compound 0.0155 µg/mL, partner 1.3 µg/mL	0.935
S. pneumoniae D39V [2], first compound 0.0155 µg/mL, partner 2.6 µg/mL	0.883
S. pneumoniae D39V [2], first compound 0.028 µg/mL, partner 0.325 µg/mL	0.951
S. pneumoniae D39V [2], first compound 0.028 µg/mL, partner 0.65 µg/mL	0.877
S. pneumoniae D39V [2], first compound 0.028 µg/mL, partner 1.3 µg/mL	0.865
S. pneumoniae D39V [2], first compound 0.031 µg/mL, partner 0.65 µg/mL	0.543
S. pneumoniae D39V [2], first compound 0.031 µg/mL, partner 1.3 µg/mL	0.698
S. pneumoniae D39V [2], first compound 0.031 µg/mL, partner 2.6 µg/mL	0.684

Details	Bliss interaction score
B. subtilis 168	0.115
S. aureus DSM 20231	0.0417
S. aureus Newman [3]	-0.0743
S. pneumoniae D39V [4]	0.0368

CO/N=C(\C(=O)N[C@@H]1C(=O)N2C(C(=O)[O-])=C(C[N+]3(C)CCCC3)CS[C@H]12)c1csc(N)n1 [Cefepime] + CN[C@@H]1[C@H](O[C@H]2[C@H](O[C@H]3[C@H](O)[C@@H](O)[C@H](N=C(N)N)[C@@H](O)[C@@H]3N=C(N)N)O[C@@H](C)[C@]2(O)C=O)O[C@@H](CO)[C@H](O)[C@H]1O [Streptomycin]
fitness
Details	partner 1 µg/mL	partner 2 µg/mL	partner 4 µg/mL	partner 8 µg/mL
S. aureus Newman [1], first compound 0.125 µg/mL	0.939	0.882	–	–
S. aureus Newman [1], first compound 0.25 µg/mL	0.865	0.848	–	–
S. aureus Newman [1], first compound 0.5 µg/mL	0.765	0.773	–	–
S. pneumoniae D39V [2], first compound 0.007 µg/mL	–	0.949	0.945	0.965
S. pneumoniae D39V [2], first compound 0.0078 µg/mL	–	–	≥ 1	0.903
S. pneumoniae D39V [2], first compound 0.014 µg/mL	–	0.971	0.954	0.984
S. pneumoniae D39V [2], first compound 0.0155 µg/mL	–	–	0.984	0.889
S. pneumoniae D39V [2], first compound 0.028 µg/mL	–	0.864	0.874	0.912
S. pneumoniae D39V [2], first compound 0.031 µg/mL	–	–	0.475	0.538

fitness, S. pneumoniae D39V [2], one replicate
Details	first compound 0.0078 µg/mL	first compound 0.0155 µg/mL	first compound 0.031 µg/mL
partner 2 µg/mL	≥ 1	0.977	0.468
partner 16 µg/mL	0.883	0.863	0.481

Details	Bliss interaction score
B. subtilis 168	-0.159
S. aureus DSM 20231	0.0906
S. aureus Newman [3]	0.0474
S. pneumoniae D39V [4]	0.0613
